Experiments:
[1] = target: rat EP4 receptor (Rattus norvegicus, UniProt P43114); assay: Evaluation test of rat EP4 receptor affinity ([3H]PGE2 binding, membrane fraction of HEK-293 cells); set-up: expressed in transfected cells; host or cells: HEK-293 (ATCC CRL-1573), transient; conditions: 0.3 nmol/L [3H]PGE2, rat EP4 cell membrane fraction, room temperature 1 hour; read-out: Ki value with respect to the rat EP4 receptor
Method: Test Example 1: Evaluation Test of Rat EP4 Receptor Affinity
Construction of Rat EP4 Receptor Expressing Vector:
A rat EP4 receptor gene (GenBank accession No.: NM_032076.1) was transfected into an expression vector pcDNA3.1-V5-His-TOPO (Invitrogen Inc.).
Transient Expression of Rat EP4 Receptor:
The expression vector of a rat EP4 receptor was transfected into an HEK-293 cell (ATCC No.: CRL-1573). The transfection was carried out according to an appended instruction, using Lipofectoamine (registered trademark) 2000 reagent (Invitrogen Inc.). After the transfection, the cells were cultured in an α-MEM culture medium for 20 to 24 hours.
Preparation of Membrane Fraction:
The culture medium was removed by aspiration, 10 mL of cooled phosphate buffered saline (PBS) was added thereto per 15 cm dish, and the cells were scraped using a cell scraper (Sumitomo Bakelite). […]
[^3H]PGE2 and a cell membrane fraction were diluted with an assay buffer (50 mmol/L HEPES-NaOH, 10 mmol/L MgCl2, pH 7.5), and the test compound and unlabeled PGE2 (Cayman) were diluted with DMSO and the assay buffer. […] The radioactivity was measured using a TopCount (Perkin Elmer). […] The specific binding amount was determined by subtracting the non-specific binding amount from the total binding amount. The Ki value was calculated according to a standard method.

[2] = target: T1, human EP4 receptor (Homo sapiens, UniProt P35408); assay: Evaluation test of human EP4 receptor affinity ([3H]PGE2 binding, membrane fraction); conditions: 2.9 nmol/L [3H]PGE2, human EP4 cell membrane fraction, 25° C. 60 minutes; read-out: Ki value with respect to the human EP4 receptor
T1 construct: purchased Chemicon
Method: Test Example 2: Evaluation Test of Human EP4 Receptor Affinity
[^3H]PGE2 and a human EP4 cell membrane fraction (Chemicon) were diluted with an assay buffer (50 mmol/L HEPES-NaOH, 5 mmol/L MgCl2, 1 mmol/L CaCl2 (pH 7.4), 0.5% bovine serum albumin (BSA)), and the test compound and unlabeled PGE2 (Sigma) were diluted with DMSO and the assay buffer. The composition of the reaction liquid (250 μL) was set to be as follows: 175 μL of an assay buffer containing [^3H]PGE2 (final concentration of 2.9 nmol/L), 50 μL of a membrane fraction (Chemicon, 40 μg protein/mL), and 25 μL of a test compound (final concentrations of 0.1, 1, 10, 100, and 1000 nmol/L). For the measurement of the non-specific binding, the unlabeled PGE2 was added to a final concentration of 10 μmol/L. The final concentration of DMSO was set to 1%. The reaction liquid was incubated at 25° C. for 60 minutes. The reaction liquid was filtered with a GF/C filter paper (Whatman), using a cell harvester (Brandel). The filter paper after filtration was washed three times with 1 mL of a solution containing 50 mmol/L HEPES-NaOH (pH 7.4), 500 mmol/L NaCl, and 0.1% BSA. […] The radioactive activity was measured using a liquid scintillation counter (Perkin Elmer). […] The specific binding amount was determined by subtracting the non-specific binding amount from the total binding amount. The Ki value was calculated according to a standard method.

T1 sequence (P35408 whole entry): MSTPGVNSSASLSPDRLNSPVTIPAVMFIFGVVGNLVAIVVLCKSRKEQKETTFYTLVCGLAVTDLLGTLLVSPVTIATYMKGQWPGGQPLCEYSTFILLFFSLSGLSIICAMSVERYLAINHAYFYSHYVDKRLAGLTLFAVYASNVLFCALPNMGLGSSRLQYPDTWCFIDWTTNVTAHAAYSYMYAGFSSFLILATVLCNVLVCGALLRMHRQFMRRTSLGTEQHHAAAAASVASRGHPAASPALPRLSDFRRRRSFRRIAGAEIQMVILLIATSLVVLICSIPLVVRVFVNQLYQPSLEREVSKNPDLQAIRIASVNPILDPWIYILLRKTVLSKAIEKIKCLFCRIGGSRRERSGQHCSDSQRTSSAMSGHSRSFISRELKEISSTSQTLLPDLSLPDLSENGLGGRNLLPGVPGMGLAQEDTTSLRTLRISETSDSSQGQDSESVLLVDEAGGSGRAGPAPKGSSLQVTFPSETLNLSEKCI
Sequence of rat EP4 receptor (P43114 whole entry): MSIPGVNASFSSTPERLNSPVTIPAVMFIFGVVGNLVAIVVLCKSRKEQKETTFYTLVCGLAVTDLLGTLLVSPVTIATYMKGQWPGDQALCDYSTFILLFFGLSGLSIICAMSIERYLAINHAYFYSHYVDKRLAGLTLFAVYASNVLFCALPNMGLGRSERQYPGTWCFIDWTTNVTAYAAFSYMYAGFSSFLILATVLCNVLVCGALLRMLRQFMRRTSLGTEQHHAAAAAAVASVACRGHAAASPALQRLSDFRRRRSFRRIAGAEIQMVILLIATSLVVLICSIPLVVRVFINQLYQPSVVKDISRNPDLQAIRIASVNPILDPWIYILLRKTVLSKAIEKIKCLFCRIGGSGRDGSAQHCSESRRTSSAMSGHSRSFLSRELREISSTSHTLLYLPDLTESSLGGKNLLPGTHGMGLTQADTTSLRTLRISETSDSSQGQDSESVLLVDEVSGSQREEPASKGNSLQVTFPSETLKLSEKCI

Cc1nn(Cc2cc3ccccc3cn2)c(C(=O)N[C@@H](C)c2ccc(C(=O)O)cc2)c1Br [Compound A, 4-[(1S)-1-({[4-bromo-1-(isoquinolin-3-ylmethyl)-3-methyl-1H-pyrazol-5-yl]carbonyl}amino)ethyl]benzoic acid]
Ki [1]: 0.874 nM
Ki [2]: 1.46 nM
